Source: ChEMBL document CHEMBL1146585, “Copacamphane, picrotoxane, and alloaromadendrane sesquiterpene glycosides and phenolic glycosides from Dendrobium moniliforme” (J Nat Prod, 2003)
Calls of active or inactive are those of the source. The calls are words filed in the database; no cut-off is given here.

Tests used:
[1] = test system: B-cell; assay: Immunoregulatory activity assessed as stimulation of B cell proliferation at 10 uM; format: functional, cell-based
[2] = test system: T-cell; assay: Immunoregulatory activity assessed as inhibition of T cell proliferation at 0.1 uM; format: functional, cell-based
[3] = Cytotoxicity against T cell; format: cell-based

Row | Structure (SMILES) | Activity [1] | Activity [2] | Activity [3]
1 | CC(C)(O)[C@H]1C[C@H](O[C@@H]2O[C@H](CO)[C@@H](O)[C@H](O)[C@H]2O)[C@@]2(C)[C@@H]3CC[C@]2(C)C(=O)[C@@H]31 [DENDROMONILISIDE A] | Active | Active | Non-toxic
2 | CC(C)[C@H]1[C@@H]2OC(=O)[C@H]1[C@H]1C[C@H](O[C@@H]3O[C@H](CO)[C@@H](O)[C@H](O)[C@H]3O)[C@]3(CO3)[C@@]1(C)[C@H]2O [DENDROMONILISIDE C] | Active | Active | Non-toxic
3 | COc1cc(CO)ccc1O[C@@H]1O[C@H](CO)[C@@H](O)[C@H](O)[C@H]1O [VANILLOLOSIDE] | Active | Active | Non-toxic
